According to PubChem BioAssay (NCI):
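48-hour exposure; five concentrations; linearly interpolated endpoints. Abbreviation: GI50, concentration required for 50% inhibition of growth. TGI: concentration producing complete growth inhibition.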 Where a SMILES comes first, the peptide text is derived from it. Bridges are numbered along the chain shown (N, C = ends). Roman numbers before positions name the chains, in order. [ ]: non-standard residue; d: D form. The star is where a group is joined. Quinoxaline2carbonyl = O=C(c1cnc2ccccc2n1)*; NMeV = CN[CH](C(=O)O)C(C)C; NMeC = CN[CH](CS)C(=O)O

Assays:
Assay in all cases: inhibition of tumour cell growth, NCI panel, 48 h
A549 NSCLC = system: A549 NSCLC
SF-268 CNS = system: SF-268 CNS
NCI-H23 lung = system: NCI-H23 lung
CAKI-1 renal = system: CAKI-1 renal
OVCAR-8 ovarian = system: OVCAR-8 ovarian
OVCAR-4 ovarian = system: OVCAR-4 ovarian
SK-MEL-28 melanoma = system: SK-MEL-28 melanoma
DU-145 prostate = system: DU-145 prostate
MDA-MB-231 breast = system: MDA-MB-231 breast
RPMI-8226 leukemia = system: RPMI-8226 leukemia

## CCN(Cc1ccc(Cl)s1)c1ccc(CO)c(Cl)c1
A549 NSCLC
  GI50: 1.08 µM
  TGI: 18.7 µM
SF-268 CNS
  GI50: 17.7 µM
  TGI: > 60 µM
NCI-H23 lung
  GI50: 3.2 µM
  TGI: 42.1 µM
CAKI-1 renal
  GI50: 2270 nM
  TGI: 34.6 µM
OVCAR-8 ovarian
  GI50: 5.75 µM
  TGI: 27.6 µM
OVCAR-4 ovarian
  GI50: 0.134 µM
  TGI: 0.776 µM
SK-MEL-28 melanoma
  GI50: 11.8 µM
  TGI: 25.4 µM
DU-145 prostate
  GI50: 12 µM
  TGI: > 60.4 µM
MDA-MB-231 breast
  GI50: 8.74 µM
  TGI: 26.4 µM
RPMI-8226 leukemia
  GI50: 1.41 µM
  TGI: 24.5 µM

## CN(C)CC1CCCC1=O (configuration not stated)
A549 NSCLC
  TGI: 49 µM
SF-268 CNS
  TGI: 13.6 µM
NCI-H23 lung
  TGI: 11.7 µM
CAKI-1 renal
  TGI: 0.373 µM
OVCAR-8 ovarian
  TGI: 8.94 µM
OVCAR-4 ovarian
  TGI: 5.58 µM
SK-MEL-28 melanoma
  TGI: 6.48 µM
DU-145 prostate
  TGI: > 46.9 µM
MDA-MB-231 breast
  TGI: 7.06 µM
RPMI-8226 leukemia
  TGI: 1.93 µM

## C[CH2][Pb]([CH2]C)([CH2]C)[O]C(=O)c1ccc2ccccc2n1
A549 NSCLC
  GI50: > 10 µM
  TGI: > 10 µM
SF-268 CNS
  GI50: > 10 µM
  TGI: > 10 µM
NCI-H23 lung
  GI50: > 10 µM
  TGI: > 10 µM
CAKI-1 renal
  GI50: > 10000 nM
  TGI: > 10 µM
OVCAR-8 ovarian
  GI50: > 10 µM
  TGI: > 10 µM
OVCAR-4 ovarian
  GI50: > 10 µM
  TGI: > 10 µM
SK-MEL-28 melanoma
  GI50: > 10 µM
  TGI: > 10 µM
DU-145 prostate
  GI50: > 10 µM
  TGI: > 10 µM
MDA-MB-231 breast
  GI50: > 10 µM
  TGI: > 10 µM
RPMI-8226 leukemia
  GI50: > 10 µM
  TGI: > 10 µM

## CC1NC(=O)C(NC(=O)c2cnc3ccccc3n2)COC(=O)C(C(C)C)N(C)C(=O)C2CSSCC(C(=O)N(C)C(C(C)C)C(=O)OCC(NC(=O)c3cnc4ccccc4n3)C(=O)NC(C)C(=O)N2C)N(C)C1=O (configuration not stated) (I: Quinoxaline2carbonyl-SA[NMeC][NMeV] / II: Quinoxaline2carbonyl-SA[NMeC][NMeV]; ester I:1-II:C, I:C-II:1; disulfide I:3-II:3; configuration not given here)
A549 NSCLC
  TGI: 2.78 µM
SF-268 CNS
  TGI: 0.0641 µM
NCI-H23 lung
  TGI: < 0.0133 µM
CAKI-1 renal
  TGI: > 48.7 µM
OVCAR-8 ovarian
  TGI: < 0.215 µM
OVCAR-4 ovarian
  TGI: 0.254 µM
SK-MEL-28 melanoma
  TGI: < 0.01 µM
MDA-MB-231 breast
  TGI: 0.294 µM
RPMI-8226 leukemia
  TGI: < 0.01 µM

## CCOC1=C2N=C(Cc3ccccc3F)N=C2C(=O)c2ccccc21
A549 NSCLC
  TGI: > 100 µM
SF-268 CNS
  TGI: > 100 µM
NCI-H23 lung
  TGI: > 100 µM
CAKI-1 renal
  TGI: > 100 µM
OVCAR-8 ovarian
  TGI: > 100 µM
OVCAR-4 ovarian
  TGI: > 100 µM
SK-MEL-28 melanoma
  TGI: > 100 µM
RPMI-8226 leukemia
  TGI: > 100 µM

## N#Cc1ccc(N=Cc2c([O-])ccc3ccccc23)cc1.[C-]#[O+].[C-]#[O+].[Ir]
A549 NSCLC
  GI50: 20.8 µM
  TGI: 38.1 µM
SF-268 CNS
  GI50: 14.8 µM
  TGI: 29.2 µM
NCI-H23 lung
  GI50: 10.5 µM
  TGI: 24.4 µM
CAKI-1 renal
  GI50: 2920 nM
  TGI: 6.26 µM
OVCAR-8 ovarian
  GI50: 6.03 µM
  TGI: 28 µM
OVCAR-4 ovarian
  GI50: 3.85 µM
  TGI: 17.7 µM
SK-MEL-28 melanoma
  GI50: 10.4 µM
  TGI: 22.1 µM
RPMI-8226 leukemia
  GI50: 5 µM
  TGI: 25.1 µM

## Cc1cc2c(c(C(=O)O)c1C)-c1cccc(F)c1C2=O
A549 NSCLC
  TGI: > 100 µM
SF-268 CNS
  TGI: > 100 µM
NCI-H23 lung
  TGI: > 100 µM
CAKI-1 renal
  TGI: > 100 µM
OVCAR-8 ovarian
  TGI: > 100 µM
OVCAR-4 ovarian
  TGI: > 100 µM
SK-MEL-28 melanoma
  TGI: > 100 µM
RPMI-8226 leukemia
  TGI: > 100 µM

## c1ccc2c3c([nH]c2c1)C1CCCN1CC3 (configuration not stated)
SF-268 CNS
  TGI: > 10 µM
NCI-H23 lung
  TGI: > 10 µM
CAKI-1 renal
  TGI: > 10 µM
OVCAR-8 ovarian
  TGI: > 10 µM
OVCAR-4 ovarian
  TGI: > 10 µM
SK-MEL-28 melanoma
  TGI: > 10 µM
DU-145 prostate
  TGI: > 10 µM
MDA-MB-231 breast
  TGI: > 10 µM
RPMI-8226 leukemia
  TGI: > 10 µM

## COc1ccc(C(Cl)=C(c2ccc(OCCN(C)C)cc2)c2ccc(OCCN(C)C)cc2)cc1
A549 NSCLC
  TGI: 3.67 µM
SF-268 CNS
  TGI: 4.71 µM
NCI-H23 lung
  TGI: 3.98 µM
CAKI-1 renal
  TGI: 16.3 µM
OVCAR-8 ovarian
  TGI: 4.06 µM
OVCAR-4 ovarian
  TGI: 5.99 µM
SK-MEL-28 melanoma
  TGI: 3.11 µM
RPMI-8226 leukemia
  TGI: 3.83 µM

## COc1ccc2c(c1OC)C(=O)OC2C1c2c(c([N+](=O)[O-])c3c(c2OC)OCO3)CCN1C (configuration not stated)
A549 NSCLC
  GI50: > 100 µM
  TGI: > 100 µM
SF-268 CNS
  GI50: > 100 µM
  TGI: > 100 µM
NCI-H23 lung
  GI50: > 100 µM
  TGI: > 100 µM
CAKI-1 renal
  GI50: > 100000 nM
  TGI: > 100 µM
OVCAR-8 ovarian
  GI50: > 100 µM
  TGI: > 100 µM
OVCAR-4 ovarian
  GI50: > 100 µM
  TGI: > 100 µM
SK-MEL-28 melanoma
  GI50: > 100 µM
  TGI: > 100 µM
DU-145 prostate
  GI50: > 100 µM
  TGI: > 100 µM
MDA-MB-231 breast
  GI50: > 100 µM
  TGI: > 100 µM

## Cc1cccc(NC(=O)c2sc3nc4c(cc3c2N)CN(Cc2ccccc2)CC4)c1C
A549 NSCLC
  GI50: 0.381 µM
  TGI: > 50 µM
SF-268 CNS
  GI50: 0.387 µM
  TGI: > 50 µM
NCI-H23 lung
  GI50: 0.256 µM
  TGI: > 50 µM
OVCAR-8 ovarian
  GI50: 0.297 µM
  TGI: > 50 µM
OVCAR-4 ovarian
  GI50: 0.971 µM
  TGI: 39 µM
SK-MEL-28 melanoma
  GI50: 4.06 µM
  TGI: > 50 µM
DU-145 prostate
  GI50: 0.201 µM
  TGI: > 50 µM
MDA-MB-231 breast
  GI50: 0.432 µM
  TGI: > 50 µM
RPMI-8226 leukemia
  GI50: 0.198 µM
  TGI: > 50 µM

## COC(=O)c1nc(-c2ccccc2)oc1S(=O)(=O)n1nc(C)cc1N
A549 NSCLC
  GI50: 28.9 µM
  TGI: 84 µM
SF-268 CNS
  GI50: 18.9 µM
  TGI: 41.3 µM
NCI-H23 lung
  GI50: 16.7 µM
  TGI: 35.9 µM
OVCAR-8 ovarian
  GI50: 19.7 µM
  TGI: 50.3 µM
OVCAR-4 ovarian
  GI50: 16.2 µM
  TGI: 36 µM
SK-MEL-28 melanoma
  GI50: 14.7 µM
  TGI: 29.9 µM
DU-145 prostate
  GI50: 15.9 µM
  TGI: 29.3 µM
MDA-MB-231 breast
  GI50: 9.03 µM
  TGI: 21.8 µM
RPMI-8226 leukemia
  GI50: 5.39 µM
  TGI: 23.4 µM

## Cc1ccc(S(=O)OC2C3CC4CC(C3)CC2C4)cc1 (configuration not stated)
A549 NSCLC
  TGI: > 100 µM
SF-268 CNS
  TGI: > 100 µM
NCI-H23 lung
  TGI: > 100 µM
CAKI-1 renal
  TGI: > 100 µM
OVCAR-8 ovarian
  TGI: > 100 µM
OVCAR-4 ovarian
  TGI: > 100 µM
SK-MEL-28 melanoma
  TGI: > 100 µM
RPMI-8226 leukemia
  TGI: > 100 µM

## Cc1cc(N(CCC#N)CCC#N)ccc1/C=C1/N=C(c2ccccc2)N(N)C1=O
A549 NSCLC
  TGI: > 100 µM
SF-268 CNS
  TGI: > 100 µM
NCI-H23 lung
  TGI: > 100 µM
CAKI-1 renal
  TGI: > 100 µM
OVCAR-8 ovarian
  TGI: > 100 µM
OVCAR-4 ovarian
  TGI: > 100 µM
SK-MEL-28 melanoma
  TGI: > 100 µM
RPMI-8226 leukemia
  TGI: > 100 µM

## COc1cc2nc(NCCCCCNC(=O)c3ccco3)nc(N)c2cc1OC
A549 NSCLC
  TGI: > 100 µM
SF-268 CNS
  TGI: > 100 µM
NCI-H23 lung
  TGI: > 100 µM
CAKI-1 renal
  TGI: > 100 µM
OVCAR-8 ovarian
  TGI: > 100 µM
OVCAR-4 ovarian
  TGI: > 100 µM
SK-MEL-28 melanoma
  TGI: 36.2 µM
RPMI-8226 leukemia
  TGI: > 100 µM

## CCC1(O)C(=O)OCc2c1cc1n(c2=O)Cc2cc3cc(N)ccc3nc2-1 (configuration not stated)
A549 NSCLC
  TGI: 2.41 µM
NCI-H23 lung
  TGI: 0.0817 µM
CAKI-1 renal
  TGI: 0.343 µM
OVCAR-8 ovarian
  TGI: 4.45 µM
OVCAR-4 ovarian
  TGI: > 22 µM
SK-MEL-28 melanoma
  GI50: 0.493 µM
  TGI: 41.8 µM
DU-145 prostate
  TGI: < 0.01 µM
MDA-MB-231 breast
  TGI: > 64.8 µM
RPMI-8226 leukemia
  TGI: 4.94 µM

## [N-]=[N+]=C1C(=O)C2CC3CC(C2)CC1C3
A549 NSCLC
  TGI: > 100 µM
SF-268 CNS
  TGI: > 100 µM
NCI-H23 lung
  TGI: > 100 µM
CAKI-1 renal
  TGI: > 100 µM
OVCAR-8 ovarian
  TGI: > 100 µM
OVCAR-4 ovarian
  TGI: > 100 µM
SK-MEL-28 melanoma
  TGI: > 100 µM
RPMI-8226 leukemia
  TGI: > 100 µM

## CN1COc2c(n(C)c(=O)[nH]c2=O)C1
A549 NSCLC
  TGI: > 100 µM
SF-268 CNS
  TGI: > 100 µM
NCI-H23 lung
  TGI: > 100 µM
CAKI-1 renal
  TGI: > 68.3 µM
OVCAR-8 ovarian
  TGI: > 100 µM
OVCAR-4 ovarian
  TGI: > 100 µM
SK-MEL-28 melanoma
  TGI: > 100 µM
RPMI-8226 leukemia
  TGI: 90.8 µM
